Assay results from patent US6544985B2, “Dihydro-benzo [b][1,4]diazepin-2-one derivatives” (Hoffman-La Roche Inc., priority 2001, dated 2003).

How the values were obtained:
[1] = biological target: T1, recombinant rat mGluR2 expressed in CHO cells (Rattus norvegicus, UniProt P31421); assay: [3H]-LY354740 binding on mGlu2 transfected CHO cell membranes (displacement binding assay)
T1 construct: expressed in transfected cells; vector pcDNA I-amp, construct pcD1mGR2
T1 sequence (P31421 19-872): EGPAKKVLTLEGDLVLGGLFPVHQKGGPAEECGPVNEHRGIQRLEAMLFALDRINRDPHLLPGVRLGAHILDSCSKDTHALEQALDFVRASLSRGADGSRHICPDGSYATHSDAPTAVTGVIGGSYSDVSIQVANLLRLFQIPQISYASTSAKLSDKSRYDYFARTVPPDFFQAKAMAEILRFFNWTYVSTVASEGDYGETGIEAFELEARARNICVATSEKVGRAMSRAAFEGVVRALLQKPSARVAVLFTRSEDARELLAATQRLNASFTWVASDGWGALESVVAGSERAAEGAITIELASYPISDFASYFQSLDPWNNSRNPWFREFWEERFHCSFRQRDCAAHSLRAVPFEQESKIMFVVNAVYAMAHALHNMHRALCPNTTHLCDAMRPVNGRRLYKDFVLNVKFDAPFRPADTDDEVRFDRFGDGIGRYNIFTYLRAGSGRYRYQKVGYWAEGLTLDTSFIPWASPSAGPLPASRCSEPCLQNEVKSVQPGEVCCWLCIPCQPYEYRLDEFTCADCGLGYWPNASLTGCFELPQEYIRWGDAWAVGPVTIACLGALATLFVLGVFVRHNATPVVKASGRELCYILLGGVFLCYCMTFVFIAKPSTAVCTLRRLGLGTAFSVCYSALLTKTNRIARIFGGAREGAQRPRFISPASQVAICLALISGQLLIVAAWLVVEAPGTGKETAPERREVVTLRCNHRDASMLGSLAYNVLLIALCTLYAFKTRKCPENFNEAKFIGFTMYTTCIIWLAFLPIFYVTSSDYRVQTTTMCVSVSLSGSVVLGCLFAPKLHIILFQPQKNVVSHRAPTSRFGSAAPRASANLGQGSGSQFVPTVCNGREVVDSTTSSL

melting point	Ki [1]	Compound
197 to 199 °C	70 nM	CN(C)c1cc2c(cc1-c1cccc(F)c1F)NC(=O)CC(c1cccc(-n3ccnn3)c1)=N2 [Example 8, 8-(2,3-Difluoro-phenyl)-7-dimethylamino-4-(3-[1,2,3]triazol-1-yl-phenyl)-1,3-dihydro-benzo[b][1,4]diazepin-2-one]
182 °C	25 nM	COCCN(C)c1cc2c(cc1Cl)NC(=O)CC(c1cccc(-c3cc(C)no3)c1)=N2 [Example 11]
218 to 220 °C	30 nM	Cc1cc(-c2cccc(C3=Nc4cc(OCC(F)(F)F)c(-c5ccccc5F)cc4NC(=O)C3)c2)on1 [Example 24, 8-(2-Fluoro-phenyl)-4-[3-(3-methyl-isoxazol-5-yl)-phenyl]7-(2,2,2-trifluoro-ethoxy)-1,3-dihydro-benzo[b][1,4]diazepin-2-one]
165 °C	125 nM	CN(C)c1cc2c(cc1C(F)(F)F)NC(=O)CC(c1cccc(-c3cc(CN4CCOCC4)no3)c1)=N2 [Example 54, 7-Dimethylamino-4-[3-(3-morpholin-4-ylmethyl-isoxazol-5-yl)-phenyl]-8-trifluoromethyl-1,3-dihydro-benzo[b][1,4]diazepin-2-one]
252 to 255 °C	4 nM	N#Cc1cc(C2=Nc3cc(OCC(F)(F)F)c(C(F)(F)F)cc3NC(=O)C2)ccn1 [Example 88, 4-[4-Oxo-8-(2,2,2-trifluoro-ethoxy)-7-trifluoromethyl-4,5-dihydro-3H-benzo[b][1,4]diazepin-2-yl]-pyridine-2-carbonitrile]
191 °C	9 nM	CCN(CC)c1cc2c(cc1C#N)NC(=O)CC(c1cccc(-c3cc(C)no3)c1)=N2 [Example 107, 8-Diethylamino-2-[3-(3-methyl-isoxazol-5-yl)-phenyl]-4-oxo-4,5-dihydro-3H-benzo[b][1,4]diazepine-7-carbonitrile]
218 to 219 °C		CN(C)c1cc2c(cc1C(F)(F)F)NC(=O)CC(c1cccc(-c3cocn3)c1)=N2 [Example 208, 7-Dimethylamino-4-(3-oxazol-4-yl-phenyl)-8-trifluoromethyl-1,3-dihydro-benzo[b][1,4]diazepin-2-one]
200 °C (dec.)		CN(C)c1cc2c(cc1C(F)(F)F)NC(=O)CC(c1cccc(-c3cscn3)c1)=N2 [Example 209, 7-Dimethylamino-4-(3-thiazol-4-yl-phenyl)-8-trifluoromethyl-1,3-dihydro-benzo[b][1,4]diazepin-2-one]
192 to 193 °C		Cc1nc(-c2cccc(C3=Nc4cc(N(C)C)c(C(F)(F)F)cc4NC(=O)C3)c2)co1 [Example 210, 7-Dimethylamino-4-[3-(2-methyl-oxazol-4-yl)-phenyl]-8-trifluoromethyl-1,3-dihydro-benzo[b][1,4]diazepin-2-one]
238 to 239 °C		Cc1ocnc1-c1cccc(C2=Nc3cc(N(C)C)c(C(F)(F)F)cc3NC(=O)C2)c1 [Example 211, 7-Dimethylamino-4-[3-(5-methyl-oxazol-4-yl)-phenyl]-8-trifluoromethyl-1,3-dihydro-benzo[b][1,4]diazepin-2-one]
214 to 215 °C		Cc1scnc1-c1cccc(C2=Nc3cc(N(C)C)c(C(F)(F)F)cc3NC(=O)C2)c1 [Example 213, 7-Dimethylamino-4-[3-(5-methyl-thiazol-4-yl)-phenyl]-8-trifluoromethyl-1,3-dihydro-benzo[b][1,4]diazepin-2-one]
208 to 209 °C		Cc1nc(-c2cccc(C3=Nc4cc(N(C)C)c(C(F)(F)F)cc4NC(=O)C3)c2)c(C)s1 [Example 214, 7-Dimethylamino-4-[3-(2,5-dimethyl-thiazol-4-yl)-phenyl]-8-trifluoromethyl-1,3-dihydro-benzo[b][1,4]diazepin-2-one]
190 to 193 °C		Cc1sc(CO)nc1-c1cccc(C2=Nc3cc(N(C)C)c(C(F)(F)F)cc3NC(=O)C2)c1 [Example 216, 7-Dimethylamino-4-[3-(2-hydroxymethyl-5-methyl-thiazol-4-yl)-phenyl]-8-trifluoromethyl-1,3-dihydro-benzo[b][1,4]diazepin-2-one]
226 to 227 °C		Cc1nc(-c2cccc(C3=Nc4cc(N(C)C)c(C(F)(F)F)cc4NC(=O)C3)c2)c(CO)s1 [Example 218, 7-Dimethylamino-4-[3-(5-hydroxymethyl-2-methyl-thiazol-4-yl)-phenyl]-8-trifluoromethyl-1,3-dihydro-benzo[b][1,4]diazepin-2-one]

Continued, compound first:

Compound	melting point	Ki [1]
CN(C)c1cc2c(cc1Cl)NC(=O)CC(c1cccc(-c3ccnn3C)c1)=N2 [Example 16, 8-Chloro-7-dimethylamino-4-[3-(2-methyl-2H-pyrazol-3-yl)-phenyl]-1,3-dihydro-benzo[b][1,4]diazepin-2-one]	225 °C	23 nM
CN(C)c1cc2c(cc1Cl)NC(=O)CC(c1cccc(-c3nc(CO)cs3)c1)=N2 [Example 19, 8-Chloro-7-dimethylamino-4-[3-(4-hydroxymethyl-thiazol-2-yl)-phenyl]-1,3-dihydro-benzo[b][1,4]diazepin-2-one]	134 °C (dec.)	30 nM
CN(C)c1cc2c(cc1Cl)NC(=O)CC(c1cccc(-c3nc(CO)co3)c1)=N2 [Example 27, 8-Chloro-7-dimethylamino-4-[3-(4-hydroxymethyl-oxazol-2-yl)-phenyl]-1,3-dihydro-benzo[b][1,4]diazepin-2-one]	193 to 195 °C	39 nM
CCCN(C)c1cc2c(cc1Cl)NC(=O)CC(c1cccc(-n3nncc3CO)c1)=N2 [Example 29, 8-Chloro-7-(methyl-propyl-amino)-4-[3-(5-hydroxymethyl-[1,2,3]triazol-1-yl)-phenyl]-1,3-dihydro-benzo[b][1,4]diazepin-2-one]	178 °C (dec.)	30 nM
CCN(CC)c1cc2c(cc1Cl)NC(=O)CC(c1cccc(-n3nncc3CO)c1)=N2 [Example 30, 8-Chloro-7-(diethyl-amino)-4-[3-(5-hydroxymethyl-[1,2,3]triazol-1-yl)-phenyl]-1,3-dihydro-benzo[b][1,4]diazepin-2-one]	208 °C (dec.)	44 nM
O=C1CC(c2cccc(-n3nncc3CO)c2)=Nc2cc(N3CCCC3)c(Cl)cc2N1 [Example 32, 8-Chloro-4-[3-(5-hydroxymethyl-[1,2,3]triazol-1-yl)-phenyl]-7-pyrrolidin-1-yl-1,3-dihydro-benzo[b][1,4]diazepin-2-one]	193 to 197 °C	19 nM
CN(c1cc2c(cc1Cl)NC(=O)CC(c1cccc(-n3nncc3CO)c1)=N2)C1CC1 [Example 37, 8-Chloro-7-(cyclopropyl-methyl-amino)-4-[3-(5-hydroxymethyl-[1,2,3]triazol-1-yl)-phenyl]-1,3-dihydro-benzo[b][1,4]diazepin-2-one]		160 nM
CN(C)c1cc2c(cc1Cl)NC(=O)CC(c1cccc(-n3cccn3)c1)=N2 [Example 52, 8-Chloro-7-dimethylamino-4-(3-pyrazol-1-yl-phenyl)-1,3-dihydro-benzo[b][1,4]diazepin-2-one]	231 to 234 °C	110 nM
CSc1nccn1-c1cccc(C2=Nc3cc(N(C)C)c(C(F)(F)F)cc3NC(=O)C2)c1 [Example 71, 7-Dimethylamino-4-[3-(2-methylsulfanyl-imidazol-1-yl)-phenyl]-8-trifluoromethyl-1,3-dihydro-benzo[b][1,4]diazepin-2-one]	192 °C	19 nM
CN(CC1CC1)c1cc2c(cc1C(F)(F)F)NC(=O)CC(c1ccnc(C#N)c1)=N2 [Example 78, 4-[8-(Cyclopropylmethyl-methyl-amino)-4-oxo-7-trifluoromethyl-4,5-dihydro-3H-benzo[b][1,4]diazepin-2-yl]-pyridine-2-carbonitrile]	155 °C	5 nM
CN(C)c1cc2c(cc1C(F)(F)F)NC(=O)CC(c1cccc(-n3nncc3CNC3CC3)c1)=N2 [Example 82, 4-[3-(5-Cyclopropylaminomethyl-[1,2,3]triazol-1-yl)-phenyl]-7-dimethylamino-8-trifluoromethyl-1,3-dihydro-benzo[b][1,4]diazepin-2-one]		49 nM
CCCN(C)c1cc2c(cc1C)NC(=O)CC(c1cccc(C#N)c1)=N2 [Example 92, 3-[7-Methyl-8-(methyl-propyl-amino)-4-oxo-4,5-dihydro-3H-benzo[b][1,4]diazepin-2-yl]-benzonitrile]	195 °C	25 nM
CC(C)CN(C)c1cc2c(cc1Cl)NC(=O)CC(c1cccc(-n3nncc3CO)c1)=N2 [Example 101, 8-Chloro-4-[3-(5-hydroxymethyl-[1,2,3]triazol-1-yl)-phenyl]-7-(isobutyl-methyl-amino)-1,3-dihydro-benzo[b][1,4]diazepin-2-one]	201 °C	20 nM
CCCN(C)c1cc2c(cc1Cl)NC(=O)CC(c1cccc(-n3nncc3CN3CCC3)c1)=N2 [Example 122, 4-[3-(5-Azetidin-1-ylmethyl-[1,2,3]triazol-1-yl)-phenyl]-8-chloro-7-(methyl-propyl-amino)-1,3-dihydro-benzo[b][1,4]diazepin-2-one]	169 °C	15 nM
CCCc1sc(CO)nc1-c1cccc(C2=Nc3cc(N(C)C)c(C(F)(F)F)cc3NC(=O)C2)c1 [Example 217, 7-Dimethylamino-4-[3-(2-hydroxymethyl-5-propyl-thiazol-4-yl)-phenyl]-8-trifluoromethyl-1,3-dihydro-benzo[b][1,4]diazepin-2-one]	112 to 114 °C	
CC(C)c1nc(-c2cccc(C3=Nc4cc(N(C)C)c(C(F)(F)F)cc4NC(=O)C3)c2)c[nH]1 [Example 221, 7-Dimethylamino-4-[3-(2-isopropyl-1H-imidazol-4-yl)-phenyl]-8-trifluoromethyl-1,3-dihydro-benzo[b][1,4]diazepin-2-one]	150 °C (dec.)	
CN(C)c1cc2c(cc1Cl)NC(=O)CC(c1cccc(-c3nnc(CCO)s3)c1)=N2 [Example 223, 8-Chloro-7-dimethylamino-4-{3-[5-(2-hydroxy-ethyl)-[1,3,4]thiadiazol-2-yl]-phenyl}-1,3-dihydro-benzo[b][1,4]diazepin-2-one]	198 to 200 °C	
